From PubChem BioAssay AID1996 come the findings set out here.

The structures appear in SMILES notation. Values after ≈ are worked out from the molar mass of the structure shown.

For the data set the following is noted: buffer; pH 7.4; 200.0 µM.
For the compound `NS(=O)(=O)c1ccc(CCNC(=O)CNC(=O)Cc2ccccc2)cc1`, the kinetic solubility (as a rule, solubility judged after dilution from a stock solution rather than from solid) is above 56.3 µg/mL.
As for `Cc1c(CC(=O)Nc2ccc(Cl)cc2)sc2ccc(Cl)cc12`, the kinetic solubility is below 0.8 µg/mL.
`Cc1cc(S(=O)(=O)NCC2CC2)c(Cl)cc1Cl` registered a solubility (kinetic) above 44.1 µg/mL.
`CCc1cccc(C)c1NC(=S)N(CCOC)C(C)c1ccco1` (centres undefined) came in with a solubility (kinetic) of 25.8 µg/mL (≈ 74.5 µM).
`C#CCN1c2ccccc2Sc2cccnc21` returned a solubility (kinetic) of 4.8 µg/mL (≈ 20.1 µM).
`COC(=O)c1c(NC(C)=O)csc1C`: the solubility (kinetic) was determined as 29.2 µg/mL (≈ 137 µM).
In turn, `CC(=O)Nc1ccc(S(=O)(=O)Nc2ccc3c(c2)CCC3)cc1` returned a kinetic solubility of 4.2 µg/mL (≈ 12.7 µM).
In turn, `COCCSc1ccccc1C(=O)NCc1cccnc1` had a kinetic solubility above 45.4 µg/mL.
With `Cc1ccc(S(=O)(=O)N2CCN(c3ccccn3)CC2)cc1`, the solubility (kinetic) is 0.3 µg/mL (≈ 0.945 µM).
As for `Fc1ccc(-c2onc3ccc(C4OCCO4)cc23)cc1`, the figure is below 0.6 µg/mL; as for `CC(=O)c1cc2c(cc1NC(=O)Cc1ccsc1)OCO2`, 10.5 µg/mL (≈ 34.6 µM).
Turning to `CN(CC(=O)Nc1ccccc1Cl)C(=O)COC(=O)c1cccs1`, the kinetic solubility was above 55 µg/mL.
`Cc1ccc(NC(=O)c2cnccn2)c(Br)c1` returned a kinetic solubility of 4.2 µg/mL (≈ 14.4 µM).
Regarding `CC(C)N1CCN(Cc2c[nH]c3ccccc23)CC1CCO` (centres undefined), the solubility (kinetic) was found to be 32.8 µg/mL (≈ 109 µM).
`O=c1c([N+](=O)[O-])cccn1Cc1cccc(Cl)c1` displayed a solubility (kinetic) above 39.7 µg/mL.
As for `COc1ccccc1CNS(=O)(=O)c1ccc(Br)s1`, the figure is 32.4 µg/mL (≈ 89.4 µM); as for `CC(=O)/C(C#N)=C1\NC(=O)C(Cc2ccccc2C)S1` (centres undefined), above 43 µg/mL.
Regarding `COCCNc1ccc(N2C(=O)C3CCCCC3C2=O)cc1[N+](=O)[O-]` (centres undefined), the solubility (kinetic) was determined as 50.8 µg/mL (≈ 146 µM).
In turn, `Cn1cc([N+](=O)[O-])cc1-c1nc2ccccc2n1C` came in with a kinetic solubility above 38.4 µg/mL.
On to `COc1ccccc1CC(=O)Nc1ccc2c(C)cc(=O)oc2c1`, for which the solubility (kinetic) is 3.6 µg/mL (≈ 11.1 µM).
`COc1ccc(NC(=O)CCCn2cnc3ccccc3c2=O)cc1` registered a kinetic solubility above 50.6 µg/mL.
`O=C(COC(=O)CN1CCSC1=O)Nc1ccc(F)cc1Cl` yielded a kinetic solubility above 52 µg/mL.
The figure for `COc1cccc(C(=O)Nc2ccc3ccccc3c2)c1` is 1.6 µg/mL (≈ 5.77 µM); for `N#CCc1ccc(NC(=O)c2ccc(CN3CCc4ccccc4C3)cc2)cc1` it is 1.6 µg/mL (≈ 4.19 µM).
In turn, `COc1ccc2c(c1)CCc1c-2nc2ccccc2c1N1CCOCC1` had a solubility (kinetic) of 5.5 µg/mL (≈ 15.9 µM).
The compound `COc1ccc(NC(=O)CSc2ccccn2)c([N+](=O)[O-])c1` registered a solubility (kinetic) of 7.3 µg/mL (≈ 22.9 µM).
Regarding `Cc1cc(C(=O)OCC(=O)NC2(C#N)CCCCC2)c(C)o1`, the kinetic solubility is above 45.7 µg/mL.
Take `Nc1cc(=O)[nH]c(SCc2ccc(Cl)cc2Cl)n1`: the solubility (kinetic) worked out at 1 µg/mL (≈ 3.31 µM).
In turn, `Cc1cc2nc(-c3ccc[nH]c3=O)n(Cc3ccccc3F)c2cc1C` came in with a solubility (kinetic) of 0.4 µg/mL (≈ 1.15 µM).
`COc1ccc(C(=O)NC(=S)SCC(=O)O)cc1` had a solubility (kinetic) above 42.8 µg/mL.
Take `Cc1ccccc1NC(=O)c1ccccc1N(C)S(=O)(=O)c1ccccc1`: the solubility (kinetic) is 46.3 µg/mL (≈ 122 µM).
`Cc1ccc(C)c(OCCCCN2CCCCC2)c1.O=C(O)C(=O)O` registered a solubility (kinetic) of 47.5 µg/mL.
`Cc1cccc(-c2nnc(SCC(=O)Nc3cc(C)on3)n2C)c1` came in with a kinetic solubility above 51.5 µg/mL.
`O=C(NCc1ccccc1)Nc1cccc2ccccc12` returned a solubility (kinetic) of 0.6 µg/mL (≈ 2.17 µM).
With `CC1(C)CC(NC(=O)c2c(N)no[n+]2[O-])CC(C)(C)N1`, the kinetic solubility was above 42.5 µg/mL.
As for `CCOc1cc(S(=O)(=O)NCc2cccnc2)c(C)cc1C`, the kinetic solubility was above 48.1 µg/mL.
In the case of `C=CCOc1ccc(/C=C/C(=O)OCC(=O)NC2CCCCCCC2)cc1`, the solubility (kinetic) was below 0.8 µg/mL.
As for `O=C(Nc1ccc(N2CCOCC2)cc1)c1cnccn1`, the solubility (kinetic) is above 42.6 µg/mL.
For `O=C(CCNC(=O)c1ccccc1Cl)Nc1ccncc1`, the kinetic solubility was determined as 44.3 µg/mL (≈ 146 µM).
The compound `CCOC(=O)COc1ccc(S(=O)(=O)NC2CC2)cc1` came in with a kinetic solubility above 44.9 µg/mL.
For the compound `Cc1ccc(Nc2nnc(SC(C)C(=O)NCC3CCCO3)s2)cc1` (centres undefined), the kinetic solubility is above 56.8 µg/mL.
For `COc1ccccc1C(=O)NCCC(=O)NC1CCCCCC1`, the kinetic solubility is above 47.8 µg/mL.
`CC(Cc1ccccc1)N1Cc2ccccc2C1` (centres undefined): the solubility (kinetic) stood at 35.3 µg/mL (≈ 149 µM).
Consider `NS(=O)(=O)c1ccc(NC(=O)CSc2ncccn2)cc1`, for which the solubility (kinetic) was above 48.7 µg/mL.
The figure for `CC(C)CNc1c2c(nc3ccccc13)CCC2.Cl` is above 41.5 µg/mL; for `CCCC(=O)Nc1ccc(C(=O)COC(=O)c2cc(C)oc2C)cc1` it is 6.7 µg/mL (≈ 19.5 µM); for `O=C(O)CCC(=O)Nc1ccc(Br)cc1C(=O)c1ccc(Cl)cc1` it is 44.9 µg/mL (≈ 109 µM).
With `COc1ccc(C(=O)C(C)OC(=O)CNC(=O)C2CCCCC2)cc1` (centres undefined), the solubility (kinetic) was above 52.1 µg/mL.
Regarding `CC1CCCCC1NC(=O)COc1cccnc1[N+](=O)[O-]` (centres undefined), the solubility (kinetic) was above 44 µg/mL.
`C=CCn1c(C)cc(-c2csc(NC)n2)c1C` displayed a kinetic solubility of 8.5 µg/mL (≈ 34.4 µM).
In turn, `Clc1ccc(-c2csc(Nc3cccnc3)n2)cc1` had a kinetic solubility of 0.3 µg/mL (≈ 1.04 µM).
In turn, `COC(=O)Cc1cc(=O)[nH]c(/N=C(\N)Nc2cccc(C)c2)n1` had a kinetic solubility of 10.7 µg/mL (≈ 33.9 µM).
The compound `CC(C)CN1C2CCCC1CC(NC(=S)NCc1ccco1)C2` (centres undefined) displayed a solubility (kinetic) above 50.3 µg/mL.
For the compound `Cc1cccc(NC(=O)C(=O)NCCc2c[nH]c3ccccc23)c1C`, the kinetic solubility worked out at 1.4 µg/mL (≈ 4.17 µM).
In turn, `CC(C)(C)C(=O)O/N=C(\N)c1c(Cl)cccc1Cl` showed a solubility (kinetic) of 30.9 µg/mL (≈ 107 µM).
For the compound `CC(=O)N/C(=N/c1nc(C)cc(C)n1)Nc1ccc(C)cc1Cl`, the solubility (kinetic) was found to be 0.2 µg/mL (≈ 0.603 µM).
`Cc1ccc(S(=O)(=O)n2cnc(C)c2)cc1` came in with a kinetic solubility above 35.4 µg/mL.
In turn, `COc1ccc(CCC(=O)OCC(=O)NCc2ccc(OC)c(OC)c2)cc1OC` registered a solubility (kinetic) above 62.6 µg/mL.
As for `Cc1ccc(NC(=O)CC2(CC(=O)O)CCCC2)c(C)c1`, the figure is 40.8 µg/mL (≈ 141 µM).
Turning to `CCOC(=O)c1ccc(NC(=O)CNC(=O)c2ccco2)cc1`, the kinetic solubility worked out at 10.2 µg/mL (≈ 32.2 µM).
In turn, `COc1ccc(CCNC(=O)c2cnc(C)cn2)cc1` displayed a solubility (kinetic) above 40.7 µg/mL.
Take `CC1CCC(NC(=O)CN2C(=O)C3CC=CCC3C2=O)CC1` (centres undefined): the solubility (kinetic) was above 45.7 µg/mL.
With `Cc1ccc(CCN2CC(C(=O)NCCN(C)C)CC2=O)cc1` (centres undefined), the kinetic solubility is above 47.6 µg/mL.
Take `Cc1ccc(CC(=O)Nc2ccc(Cl)cn2)cc1`: the solubility (kinetic) was 8.4 µg/mL (≈ 32.2 µM).
Turning to `COc1ccc(C(C)=O)cc1COC(=O)[C@H](Cc1ccccc1)NC(=O)c1ccco1`, the solubility (kinetic) was determined as 8 µg/mL (≈ 19 µM).
The compound `Cc1c(S(=O)(=O)NCc2ccccc2)c(=O)n(C)c(=O)n1C` came in with a kinetic solubility above 48.5 µg/mL.
For `Cc1ccc(C23CC4CC(CC(C(=O)NC(C(=O)O)C(C)C)(C4)C2)C3)cc1` (centres undefined), the kinetic solubility is 48.1 µg/mL (≈ 130 µM).
`COc1ccc(NC(=O)C2CCCN(c3nccc(C)n3)C2)cc1` (centres undefined): the kinetic solubility is 3.8 µg/mL (≈ 11.6 µM).
For the compound `Cc1ccc(Nc2cc(C)nc3c(C)cccc23)cc1`, the solubility (kinetic) was determined as 35 µg/mL (≈ 133 µM).
`Cc1nc2c(ccc3nc(NC(=O)C4CC4)sc32)s1` registered a solubility (kinetic) of 2.8 µg/mL (≈ 9.68 µM).
The compound `CC(=O)Nc1ccc(S(=O)(=O)NCCC(=O)OCC(=O)NCc2ccccc2)cc1` showed a kinetic solubility above 65 µg/mL.
In the case of `CNC(=O)c1cc2c(cn1)[nH]c1ccccc12`, the solubility (kinetic) was 27.5 µg/mL (≈ 122 µM).
`Cc1ccc(NC(=O)NCCCN2CCCC2=O)c(C)c1` gave a kinetic solubility above 43.4 µg/mL.
Compound `O=C(O)CCCCCNC(=O)/C=C/c1ccco1` displayed a solubility (kinetic) of 26.2 µg/mL (≈ 104 µM).
`CC(=O)c1cccc(NC(=O)c2cc(C)nn2-c2ccccc2)c1` returned a kinetic solubility above 47.9 µg/mL.
For `Cc1cc(-c2ccccc2)c2c(n1)sc1c(O)cc(=O)[nH]c12`, the solubility (kinetic) was above 46.3 µg/mL.
In turn, `CCC(=O)N1CCCC(C(=O)c2ccc(-c3ccccc3)cc2)C1` (centres undefined) yielded a kinetic solubility of 29.9 µg/mL (≈ 93 µM).
Turning to `COc1ccc(NC(=O)/C=C/C(=O)O)c(OC)c1`, the kinetic solubility was 37 µg/mL (≈ 147 µM).
As for `CCCCNC(=O)COCc1cc(-c2ccc3c(c2)OCO3)on1`, the figure is 19.5 µg/mL (≈ 58.7 µM).
As for `CC(=O)Nc1ccc2c(c1)ncn2-c1ccc(C)cc1`, the figure is 38.8 µg/mL (≈ 146 µM).
Consider `Cc1ccc(S(=O)(=O)N2CCC3(CC2)OCCO3)s1`, for which the kinetic solubility is above 45.5 µg/mL.
Consider `O=C(c1c(F)cccc1F)N(Cc1cccs1)C1CCCC1`, for which the kinetic solubility is 30.3 µg/mL (≈ 94.3 µM).
In turn, `Cc1ccccc1C1NC(=S)NC2=C1C(=O)CCC2` (centres undefined) returned a kinetic solubility above 40.9 µg/mL.
As for `CCN(CCO)C(=S)Nc1cc(S(=O)(=O)N(C)C)ccc1C`, the figure is above 51.8 µg/mL; as for `COc1ccc(C)cc1NC(=S)NC(C)c1ccc(OC)c(OC)c1` (centres undefined), 13.3 µg/mL (≈ 36.9 µM); as for `CC1CCc2c(sc3[nH]c(=S)n(C)c(=O)c23)C1` (centres undefined), 4.2 µg/mL (≈ 15.8 µM).
The compound `COc1ccc(CCNC(=O)c2oc3ccc(OC)cc3c2C)cc1` had a kinetic solubility of 2.3 µg/mL (≈ 6.78 µM).
Take `CCOc1ccccc1OCCC(=O)OCC(=O)c1ccc[nH]1`: the solubility (kinetic) turned out to be 21.8 µg/mL (≈ 68.7 µM).
As for `Cc1ccccc1NCCC(=O)Nc1ccc(F)cc1`, the figure is above 40.8 µg/mL; as for `CN(CCc1ccccn1)C(=S)Nc1ccc(Cl)cc1Cl`, 46.2 µg/mL (≈ 136 µM); as for `O=C(NCCc1ccccc1)C1(c2ccccc2)CCCC1`, 28.9 µg/mL (≈ 98.5 µM).
Take `CSc1ccccc1NC(=O)CCc1ccccc1`: the kinetic solubility was 35.5 µg/mL (≈ 131 µM).
`CNC(=O)CCCN1C(=O)c2ccccc2Sc2ncccc21`: the solubility (kinetic) was above 49.1 µg/mL.
In turn, `CCOc1cccc2cc(C(=O)NCc3ccccc3)c(=N)oc12` had a solubility (kinetic) of 2.1 µg/mL (≈ 6.51 µM).
Turning to `CC(=O)Nc1ccc(NC(=O)CN2C(=O)NC3(CCCCCCC3)C2=O)cc1`, the solubility (kinetic) is 45.1 µg/mL (≈ 117 µM).
As to `Cc1ccc(S(=O)(=O)N2CCCCC2)cc1NC(=O)C1CCC1`, the kinetic solubility is 16.4 µg/mL (≈ 48.7 µM).
For the compound `COC(=O)c1ccccc1C(=O)N1CC(O)CO1` (centres undefined), the kinetic solubility was above 37.7 µg/mL.
In turn, `COc1cccc(C(=O)Nc2ccc(C(=O)NCC3CCCO3)cc2)c1` (centres undefined) yielded a solubility (kinetic) of 45.2 µg/mL (≈ 128 µM).
With `CCn1c(O)c(C=NCCN2CCOCC2)c(=O)[nH]c1=S`, the solubility (kinetic) was above 46.9 µg/mL.
As for `CC(=O)N(Cc1ccccc1)c1nc(-c2ccccc2)cs1`, the figure is below 0.3 µg/mL; as for `Cc1ccc(SC(C)C(=O)NC(N)=O)c(C)c1` (centres undefined), 7.7 µg/mL (≈ 30.5 µM).
As for `O=C(O)c1cncc(SCc2ccccc2)n1`, the figure is 34.5 µg/mL (≈ 140 µM); as for `COc1ccccc1/C=N/OCc1cc(C(C)=O)ccc1OC`, 8.4 µg/mL (≈ 26.8 µM); as for `CCC(C)NS(=O)(=O)c1cc2c3c(c1)CCN3C(=O)CC2` (centres undefined), above 46.3 µg/mL.
